{
  "source": "patent US20250017888A1",
  "about": "“COMPOUNDS FOR TREATING DISEASES ASSOCIATED WITH HYALURONAN OVERPRODUCTION” (THE ROYAL VETERINARY COLLEGE, priority 2021, published 2025)",
  "key": {"bovine cartilage slices": {"tested_on": "bovine cartilage slices", "assay": "Proteoglycan shedding from bovine cartilage slices", "type": "cell-based", "conditions": "Interleukin induced, one week of incubation; compared to unmodified xanthohumol", "procedure": "Hyaluronan overproduction causes massive shedding of proteoglycans from cartilage. Bovine cartilage slices were cultivated in organ culture and osteoarthritic reactions were induced by addition on Interleukin and increasing concentrations of xanthohumol-betaine. The amounts of proteoglycan were determined in the cartilage slices and in the medium after one week of incubation."}, "fibroblasts": {"tested_on": "fibroblasts", "assay": "Alamar blue staining of fibroblasts", "type": "cell-based", "conditions": "Fibroblast", "procedure": "The hyaluronan synthase activity (Prehm, P. and Schumacher, U., Biochem. Pharmacol. 2004, 68, 1401-1410), the cytotoxicity of the drugs (O'Brien, J. et al., Eur. J. Biochem. 2000, 267, 5421-5426), proteoglycan synthesis rate, hyaluronan (Prehm, P. J. Rheumatol., 2005, 32, 690-696) and proteoglycan (Bjornsson, S. Anal. Biochem. 1993, 210, 282-291) were determined as described. The effect of the prenylflavonoids on the MRP5 export rate was measured with fluorescein diacetate as described (Schulz, T., Schumacher, U., and Prehm, P., J Biol. Chem., 2007, 282, 20999-21004). The determination of the IC50 values on the phosphodiesterase 5 was performed according to the instructions of BPS Bioscience. The culture of bovine chondrocytes in alginate beads and of explants of bovine cartilage was described previously (Deiters, B. and Prehm, P. Arthritis Res. Ther., 2008, 10, R8; Prehm, P. J. Rheumatol. 2005, 32, 690-696). Osteoarthritic reactions were induced in chondrocytes growing in alginate beads by incubation with medium containing 10 ng/ml of II-17 for 6 days, and in cartilage explants with 10 ng/ml of II-17 and 5 ng/ml of II-1α. The supernatants were withdrawn and stored at −20° C. for later analysis. The explants were weighed and extracted with 1 ml of 4 M guanidinium-HCl for 72 hours at 4° C. The proteoglycan concentrations were determined in the extracts."}, "Str/ort mice": {"tested_on": "Str/ort mice", "assay": "Micro-CT of tibial trabecular and cortical bone in Str/ort mice", "type": "in vivo, mouse", "procedure": "At 10-13 weeks of age, 21 male Str/ort mice (n=7/group) were assigned randomly to vehicle, hylin-betaine and xantho-betaine groups and were treated intraperitoneally 18 weeks with either vehicle (5% DMSO in 95% peanut oil), 50 mg/kg compound of Example 1 (“hylin-betaine”) in 5% DMSO and 95% peanut oil or 50 mg/kg compound of Example 2 (“xantho-betaine”) in 5% DMSO and 95% peanut oil. Micro-CT scanning and analysis were performed as described previously. Briefly, tibiae from vehicle, hylin-betaine and xantho-betaine treated groups were scanned using the Skyscan 1172 (Skyscan, Kontich, Belgium), with x-ray tube operated at 50 kV and 200 Micro-A, 1600 ms exposure time with a 0.5 mm aluminium filter and a voxel size of micro-m 5. The scanning time for each sample was approximately 2 hours. The slices were then reconstructed using NRecon 1.6.9.4 (Skyscan, Kontich, Belgium). 2D/3D analyses were performed using CTAn 1.15.4.0+ version software (Skyscan, Kontich, Belgium). Additionally, 3D visualization and production of colour-coded images of trabecular, cortical and skull bones were conducted using Avizo 9.0.0 software (FEI, Oregon USA). • a. Trabecular analysis: prior to analysis, Micro-CT images were re-oriented in DataViewer 1.5.0 (Skyscan, Kontich, Belgium), such that the cross-section within the transverse plane was perpendicular to the long axis of the bone. Tibial length was measured in CTAn 1.15.4.0+ software using a straight line measuring tool and the appearance of the trabecular ‘bridge’ connecting the two primary spongiosa bone ‘islands’ was set as reference point for analysis of the metaphyseal trabecular bone adjacent to the epiphyseal growth plate. 5% of the total bone length from this point (towards the diaphysis) was utilised for trabecular analysis of the proximal tibia. The trabecular region of interest was drawn freehand using the selection tool of CTAn, a few voxels away from the endocortical surfaces in order to avoid inclusion of remnants of primary spongiosa associated with cortical bone. The selected trabecular regions of interests were analysed using CTAn BatMan software (Skyscan, Kontich, Belgium) and morphometric parameters were recorded. • b. Whole bone cortical analysis: Whole bone analysis was performed on datasets derived from CT scans using BoneJ (version 1.4.0), an ImageJ plugin. Following segmentation, alignment and removal of fibula from the dataset, a minimum bone threshold was selected using a histogram based method in ImageJ which utilises all pixels in a stack to construct a histogram and was further confirmed using ImageJ “threshold function”. The threshold ranged between 22000-22100 and was applied to all datasets to separate higher density bone from soft tissues and air. This threshold was used in “Slice Geometry” function within BoneJ to calculate bone cross sectional area (CSA), second moment of area around the minor axis (Imin), second moment of area around the major axis (Imax), mean thickness determined by local thickness in two dimensions (Ct.Th), ellipticity and resistance to torsion (J). The most proximal (15%) and the most distal portions (25%) of tibial length were excluded from analysis, as these regions include trabecular bone."}},
  "note": "pIC50: −log10 of the molar value.",
  "data": [
    {"smiles": "COc1cc(O)c(CC=C(C)C)c(O)c1C(=O)/C=C/c1ccc(OC(=O)C[N+](C)(C)C)cc1.[Cl-]", "note": "[Xantho-betaine, (E)-2-(4-(3-(2,4-dihydroxy-6-methoxy-3-(3-methylbut-2-en-1-yl)phenyl)-3-oxoprop-1-en-1-yl)phenoxy)-N,N,N-trimethyl-2-oxoethanaminium chloride]", "values": [
      {"measurement": "reduction of shedding of proteoglycan into the medium", "setting": "bovine cartilage slices", "result": "more effective"},
      {"measurement": "pIC50", "setting": "fibroblasts", "result": 4.10},
      {"measurement": "metaphyseal trabecular bone architecture and mass (tibial length, BV/TV, TV, BV, eccentricity, thickness, separation, number)", "setting": "Str/ort mice; 50 mg/kg intraperitoneally, 18 weeks, vs vehicle", "result": "do not alter"},
      {"measurement": "cortical cross-sectional area (CSA)", "setting": "Str/ort mice; apart from one distal region and a region close to tibio-fibula junction", "result": "do not significantly"},
      {"measurement": "predicted tibial resistance to torsion (J)", "setting": "Str/ort mice; multiple regions across tibial length, vs vehicle", "result": "higher"},
      {"measurement": "mean cortical cross-sectional thickness", "setting": "Str/ort mice; multiple regions from −15-60% tibial length, vs vehicle", "result": "higher in some regions and lower in other regions"},
      {"measurement": "second moment of area around minor axis (Imin)", "setting": "Str/ort mice; vs vehicle, one region proximally", "result": "significantly lowers"},
      {"measurement": "tibial ellipticity", "setting": "Str/ort mice; vs vehicle, region ˜40-50% along the tibia", "result": "greater ellipticity"},
      {"measurement": "second moment of area around major axis (Imax)", "setting": "Str/ort mice; vs vehicle, ˜35-55% of tibial length", "result": "significantly increased"}
    ]}
  ]
}
